{"source": "patent US20150335624A1", "about": "“COMPOSITIONS AND METHODS FOR USING HUPERZINE AND ANALOGS THEREOF” (INSERO HEALTH INC., priority 2013, published 2015)", "type_in_all_cases": "in vivo, human", "key": {"[1]": {"experiment": "Phase 1 clinical trial, peak plasma level of huperzine A", "experimental": "(§1) A phase 1 clinical trial was conducted with huperzine A. The primary aim of the study was to conduct a proof-of-principle assessment of the safety and tolerability and early stage pharmacokinetics of dietary supplement Huperzine A up to 6.4 mg/day as add-on, open-label therapy in 8 subjects with drug-resistant epilepsy. The hypothesis was that Huperzine A in 8 subjects with drug-resistant epilepsy as add-on; open-label therapy would be well tolerated when titrated from 1.6 mg/day up to 6.4 mg/day. The secondary aim was to acquire preliminary data on the parasympathetic effect of Huperzine A on cardiac function.\n(§2) The trial was a single-center, in-patient, open-label, dose-escalation study conducted at one site. This study would enroll up to 10 adults (≧18 years to 65 years) to obtain 8 randomized subjects with drug-resistant epilepsy that were not well controlled with 1 to 3 concomitant anti-epileptic drugs (AEDs).\nThe study drug was supplied as 0.200 mg tablets and dispensed by the study site's pharmacy. Huperzine A tablets derived from Huperzia serrata were sourced from a commercially available supplier in the United States.\nRandomly chosen tablets of the supplied trial medication, as well as a composite have been assessed for purity by an independent laboratory using standard analytic techniques (HPLC) and found to contain between 0.145 mg and 0.166 mg of Huperzine A per tablet. Subject dosing was based on the label potency of the tablets (i.e. 0.200 mg). Tablets were randomly assigned to each subject in a dosing bottle container containing 120 tablets per subject. Each bottle was labeled with a study identifier. subject ID, dose of each tablet, dosing instructions, expiration date, and lot number.\n(§3) Eight subjects with drug-resistant epilepsy were provided huperzine A. Six subjects completed the study. Doses were varied as in Table A. Doses were six hours apart. Subjects 1-3 began dosing at 18:00, subjects 4-8 began dosing at 12:00."}, "CRP": {"system": "CRP", "experiment": "Phase 1 clinical trial, cardiologic marker CRP", "experimental": "as §1, §2, §3\n(§4) Table B provides biomarker test results. Baseline, peak and change values represented as mean±the standard error of the mean (SEM). Statistical data is included for all subjects excluding subject #7 because that subject was on a conflicting medication. Peak represents peak plasma level or, if unavailable, the nearest values for all values except cardiological markers where peak represents Day 2. The p-values were calculated from one-sided paired t tests."}, "[2]": {"experiment": "Phase 1 clinical trial, renal marker serum creatinine", "experimental": "as §1, §2, §3, §4"}, "[3]": {"experiment": "Phase 1 clinical trial, renal marker eGFR (creatinine clearance rate)", "conditions": "excluding #7", "experimental": "as §1, §2, §3, §4"}, "IL-1 beta": {"system": "IL-1 beta", "experiment": "Phase 1 clinical trial, inflammatory marker IL-1 beta", "conditions": "excluding #7", "experimental": "as §1, §2, §3, §4"}, "IL-6 [4]": {"system": "IL-6", "experiment": "Phase 1 clinical trial, inflammatory marker IL-6 (IITR1)", "conditions": "excluding #7", "experimental": "as §1, §2, §3, §4"}, "IL-6 [5]": {"system": "IL-6", "experiment": "Phase 1 clinical trial, inflammatory marker IL-6 (Labcorp, different test center)", "conditions": "excluding #7", "experimental": "as §1, §2, §3, §4"}, "IL-10": {"system": "IL-10", "experiment": "Phase 1 clinical trial, inflammatory marker IL-10", "conditions": "excluding #7", "experimental": "as §1, §2, §3, §4"}, "IL-17": {"system": "IL-17", "experiment": "Phase 1 clinical trial, inflammatory marker IL-17", "conditions": "excluding #7", "experimental": "as §1, §2, §3, §4"}, "TNF-alpha": {"system": "TNF-alpha", "experiment": "Phase 1 clinical trial, inflammatory marker TNF-alpha", "conditions": "excluding #7", "experimental": "as §1, §2, §3, §4"}, "MCP-1": {"system": "MCP-1", "experiment": "Phase 1 clinical trial, marker MCP-1", "experimental": "as §1, §2, §3, §4\nMonocyte chemotactic protein-1 (MCP-1) as a marker is implicated in pathogeneses of several diseases characterized by monocytic infiltrates. MCP-1 is involved in the neuroinflammatory processes that take place in the various diseases of the central nervous system, which are characterized by neuronal degeneration. MCP-1 expression in glial cells is increased in epilepsy, brain ischemia, Alzheimer's disease, some encephalomyelitis, and traumatic brain injury."}, "[6]": {"experiment": "Phase 1 clinical trial, ECG recording of cardiac function (heart rate, HRV, TWA, QT, VPB, VT)", "conditions": "for T-wave alternans (TWA): all leads; for TWA elevated: in the normal range", "experimental": "as §1, §2, §3\nHeart rate, heart rate variability. T-wave alternans, QT interval, ventricular premature beats, and ventricular tachycardia were studied in all 8 subjects enrolled in the study. […] This individual experienced transient peaks in heart rate and a few ventricular premature beats, probably due to an emesis-related surge in sympathetic nerve activity. […] ECG recordings show a transient disconnect in subjects one."}, "[7]": {"conditions": "peak vs baseline, mean ± SEM, excluding #7"}, "[8]": {"conditions": "8 subjects, full recording period"}, "[9]": {"conditions": "8 subjects, full recording period, listed as huperzine"}}, "note": "Where “and” joins values, the source holds several entries; their conditions need not be identical. Equal values may be shown once."}
{"smiles": "C/C=C1\\[C@H]2C=C(C)C[C@]1(N)c1ccc(=O)[nH]c1C2", "note": "[Huperzine A, (1R,9,13E)-1-amino-13-ethylidene-11-methyl-6-azatricyclo[7.3.1.0^2,7]trideca-2(7),3,10-trien-5-one]", "values": [{"measurement": "Peak Plasma", "setting": "[1]; Subject 1, oral tablets, 4 doses 0.40-0.80 mg six hours apart", "value": 2.6, "unit": "ng/mL"}, {"measurement": "Peak Plasma", "setting": "[1]; Subject 2, 3 doses 0.40-0.80 mg six hours apart", "value": 6.7, "unit": "ng/mL"}, {"measurement": "Peak Plasma", "setting": "[1]; Subject 3, 12 doses 0.40-0.80 mg six hours apart", "value": 9.6, "unit": "ng/mL"}, {"measurement": "Peak Plasma", "setting": "[1]; Subject 4, 11 doses 0.40-0.60 mg six hours apart", "value": 11.8, "unit": "ng/mL"}, {"measurement": "Peak Plasma", "setting": "[1]; Subject 5, 13 doses 0.40-0.80 mg six hours apart", "value": 12.9, "unit": "ng/mL"}, {"measurement": "Peak Plasma", "setting": "[1]; Subject 6, 13 doses 0.40-0.60 mg six hours apart", "value": 15.9, "unit": "ng/mL"}, {"measurement": "Peak Plasma", "setting": "[1]; Subject 7, 13 doses 0.40-0.60 mg six hours apart", "value": 13.2, "unit": "ng/mL"}, {"measurement": "decrease in CRP", "setting": "CRP; from an average of 2.6±3.0 mg/L, p-value 0.02", "value": 29, "unit": "%"}, {"measurement": "CRP Peak", "setting": "CRP; mean ± SEM, subjects excluding #7, peak = Day 2, baseline 2.6 ± 3.0", "value": "1.8 ± 2.3", "unit": "mg/L"}, {"measurement": "CRP % Change", "setting": "CRP; peak vs baseline, excluding #7", "value": "−29", "unit": "%"}, {"measurement": "CRP Change", "setting": "CRP; [7]", "value": "-0.7 ± 0.8", "unit": "mg/L"}, {"measurement": "decrease in serum creatinine", "setting": "[2]; from an average of 0.9 mg/dL, p-value 0.02", "value": 18, "unit": "%"}, {"measurement": "Serum creatine Peak", "setting": "[2]; mean ± SEM, excluding #7, at peak plasma level, baseline 0.9 ± 0.3", "value": "0.7 ± 0.1", "unit": "mg/dL"}, {"measurement": "Serum creatine % Change", "setting": "[2]; peak vs baseline, excluding #7", "value": "−18", "unit": "%"}, {"measurement": "Serum creatine Change", "setting": "[2]; [7]", "value": "-0.2 ± 0.2", "unit": "mg/dL"}, {"measurement": "eGFR (flow rate) Peak", "setting": "[3]; mean ± SEM, at peak plasma level, baseline 98.3 ± 23.5", "value": "107.6 ± 13.4", "unit": "mL/min/1.73"}, {"measurement": "eGFR (flow rate) % Change", "setting": "[3]; peak vs baseline", "value": 9, "unit": "%"}, {"measurement": "eGFR (flow rate) Change", "setting": "[3]; peak vs baseline, mean ± SEM", "value": "9.3 ± 12.7", "unit": "mL/min/1.73"}, {"measurement": "IL-1 beta Peak", "setting": "IL-1 beta; mean ± SEM, at peak plasma level, baseline 23.9 ± 12.4", "value": "30.0 ± 9.8", "unit": "pg/mL"}, {"measurement": "IL-1 beta % Change", "setting": "IL-1 beta; peak vs baseline", "value": 26, "unit": "%"}, {"measurement": "IL-1 beta Change", "setting": "IL-1 beta; peak vs baseline, mean ± SEM", "value": "6.1 ± 5.2", "unit": "pg/mL"}, {"measurement": "IL-6 (IITR1) Peak", "setting": "IL-6 [4]; mean ± SEM, at peak plasma level, baseline 1.3 ± 0.2", "value": "2.8 ± 0.7", "unit": "pg/mL"}, {"measurement": "IL-6 (IITR1) % Change", "setting": "IL-6 [4]; peak vs baseline", "value": 115, "unit": "%"}, {"measurement": "IL-6 (IITR1) Change", "setting": "IL-6 [4]; peak vs baseline, mean ± SEM", "value": "1.5 ± 1.5", "unit": "pg/mL"}, {"measurement": "IL-6 (Labcorp) Peak", "setting": "IL-6 [5]; mean ± SEM, at peak plasma level, baseline 1.8 ± 1.2", "value": "4.2 ± 2.4", "unit": "pg/mL"}, {"measurement": "IL-6 (Labcorp) % Change", "setting": "IL-6 [5]; peak vs baseline", "value": 133, "unit": "%"}, {"measurement": "IL-6 (Labcorp) Change", "setting": "IL-6 [5]; peak vs baseline, mean ± SEM", "value": "2.4 ± 2.6", "unit": "pg/mL"}, {"measurement": "IL-10 Peak", "setting": "IL-10; mean ± SEM, at peak plasma level, baseline 7.3 ± 2.7", "value": "8.8 ± 1.5", "unit": "pg/mL"}, {"measurement": "IL-10 % Change", "setting": "IL-10; peak vs baseline", "value": 21, "unit": "%"}, {"measurement": "IL-10 Change", "setting": "IL-10; peak vs baseline, mean ± SEM", "value": "1.6 ± 1.6", "unit": "pg/mL"}, {"measurement": "IL-17 Peak", "setting": "IL-17; mean ± SEM, at peak plasma level, baseline 35.1 ± 17.7", "value": "36.1 ± 19.2", "unit": "pg/mL"}, {"measurement": "IL-17 % Change", "setting": "IL-17; peak vs baseline", "value": 3, "unit": "%"}, {"measurement": "IL-17 Change", "setting": "IL-17; peak vs baseline, mean ± SEM", "value": "1.0 ± 1.0", "unit": "pg/mL"}, {"measurement": "TNF-alpha Peak", "setting": "TNF-alpha; mean ± SEM, at peak plasma level, baseline 1.6 ± 0.4", "value": "1.3 ± 0.4", "unit": "pg/mL"}, {"measurement": "TNF-alpha % Change", "setting": "TNF-alpha; peak vs baseline", "value": "−15", "unit": "%"}, {"measurement": "TNF-alpha Change", "setting": "TNF-alpha; peak vs baseline, mean ± SEM", "value": "-0.2 ± 0.1", "unit": "pg/mL"}, {"measurement": "decrease in levels of MCP-1", "setting": "MCP-1; from an average of 175.2±43.5 pg/mL", "value": 15, "unit": "%"}, {"measurement": "MCP-1 Peak", "setting": "MCP-1; mean ± SEM, excluding #7, at peak plasma level, baseline 175.2 ± 43.5", "value": "148.9 pg/mL and 148.9 ± 26.3 pg/mL"}, {"measurement": "MCP-1 % Change", "setting": "MCP-1; peak vs baseline, excluding #7", "value": "−15", "unit": "%"}, {"measurement": "MCP-1 Change", "setting": "MCP-1; [7]", "value": "-26.3 ± 28.6", "unit": "pg/mL"}, {"measurement": "T-wave alternans (TWA)", "setting": "[6]; [8]", "value": "generally low in all leads"}, {"measurement": "T-wave alternans (TWA)", "setting": "[6]; [9]", "value": "low TWA levels"}, {"measurement": "QTc interval", "setting": "[6]; 8 subjects, corrected using Bazett's formula", "value": "none of the 8 subjects in the study exhibited an increase in QTc interval"}, {"measurement": "episodes of ventricular tachycardia", "setting": "[6]; 8 subjects, entire recording period", "value": "no episodes of ventricular tachycardia occurred in any of the 8 subjects"}, {"measurement": "Heart rate", "setting": "[6]; [8]", "value": "stable throughout the recordings in all but one subject"}, {"measurement": "QT interval", "setting": "[6]; [8]", "value": "unaltered"}, {"measurement": "ventricular premature beat (VPB) count", "setting": "[6]; [8]", "value": "low"}, {"measurement": "Heart rate", "setting": "[6]; [9]", "value": "7 of the 8 subjects exhibited stable heart rates"}, {"measurement": "heart rate variability, low frequency/high frequency (LF/HF) ratio", "setting": "[6]; 8 subjects, full recording period, normal range about 1 to about 4", "value": "stable"}, {"measurement": "cardiac electrical activity", "setting": "[6]; after huperzine administration", "value": "remains normal"}, {"measurement": "LF/HF ratio trend", "setting": "[6]; during the first 6 hours of recording", "value": "trend toward lowering of the LF/HF ratio"}, {"measurement": "TWA elevated", "setting": "[6]; subject 1007", "value": "about 25 μV"}, {"measurement": "increase in heart rate", "setting": "[6]; subject only, apparently related to emesis", "value": "about 120 beats/min"}, {"measurement": "TWA elevated", "setting": "[6]; subject two, during final 120-beat/min heart rate surge", "value": "about 30 μV"}]}
